Measurements from US20230048132A1, “CYCLIN-DEPENDENT KINASE INHIBITORS” (SPV THERAPEUTICS INC., priority 2018, published 2023).
pIC50: −log10 of the molar value. Like-named read-outs stand apart in the source and are kept apart here.

Tests used:
[1] = biological target: T1, CDK6-CYCLIND3 (Homo sapiens, UniProt Q00534); experiment: CDK inhibition assay (microfluidic LabChip, IC50 format); format: biochemical
T1 construct: purchased Carna

[2] = biological target: CDK4-CYCLIND1 (Homo sapiens, UniProt P11802); experiment: as above
[3] = Table 4b, upper part, read-out: CDK6 IC50
[4] = CDK4 IC50, Table 4b, upper part
[5] = Table 4b, lower part, read-out: CDK6 CyclinD3 IC50
[6] = CDK4 CyclinD1 IC50, Table 4b, lower part, a second value in parentheses for some compounds

CDK4-CYCLIND1, sequence (P11802 whole entry): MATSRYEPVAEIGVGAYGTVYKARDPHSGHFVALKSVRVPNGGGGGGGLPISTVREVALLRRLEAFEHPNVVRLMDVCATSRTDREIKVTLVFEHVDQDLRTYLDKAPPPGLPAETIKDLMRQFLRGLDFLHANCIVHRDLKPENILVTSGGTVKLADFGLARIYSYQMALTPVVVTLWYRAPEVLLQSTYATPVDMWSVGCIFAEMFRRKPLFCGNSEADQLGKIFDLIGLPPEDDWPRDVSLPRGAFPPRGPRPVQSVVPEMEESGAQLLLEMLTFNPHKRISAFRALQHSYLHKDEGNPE
CDK4-CYCLIND1, sequence (P24385 whole entry partner): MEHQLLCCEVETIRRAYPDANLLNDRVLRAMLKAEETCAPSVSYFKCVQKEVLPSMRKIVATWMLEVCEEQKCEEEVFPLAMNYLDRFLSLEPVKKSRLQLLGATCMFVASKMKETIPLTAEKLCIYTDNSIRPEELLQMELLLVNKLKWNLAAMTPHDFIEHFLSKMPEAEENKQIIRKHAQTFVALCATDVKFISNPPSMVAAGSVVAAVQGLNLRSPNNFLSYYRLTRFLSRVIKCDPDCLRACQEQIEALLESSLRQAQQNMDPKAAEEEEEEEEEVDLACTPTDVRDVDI
T1 sequence (Q00534 whole entry): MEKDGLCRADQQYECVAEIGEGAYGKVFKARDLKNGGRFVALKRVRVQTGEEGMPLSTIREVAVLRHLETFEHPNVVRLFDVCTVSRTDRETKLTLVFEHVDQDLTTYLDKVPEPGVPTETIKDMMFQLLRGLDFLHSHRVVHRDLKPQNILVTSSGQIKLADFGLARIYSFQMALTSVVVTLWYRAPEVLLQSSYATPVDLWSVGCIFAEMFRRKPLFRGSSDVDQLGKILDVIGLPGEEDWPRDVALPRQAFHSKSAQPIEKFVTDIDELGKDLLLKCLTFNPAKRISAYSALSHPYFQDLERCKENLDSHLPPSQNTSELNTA
T1 sequence (P30281 whole entry partner): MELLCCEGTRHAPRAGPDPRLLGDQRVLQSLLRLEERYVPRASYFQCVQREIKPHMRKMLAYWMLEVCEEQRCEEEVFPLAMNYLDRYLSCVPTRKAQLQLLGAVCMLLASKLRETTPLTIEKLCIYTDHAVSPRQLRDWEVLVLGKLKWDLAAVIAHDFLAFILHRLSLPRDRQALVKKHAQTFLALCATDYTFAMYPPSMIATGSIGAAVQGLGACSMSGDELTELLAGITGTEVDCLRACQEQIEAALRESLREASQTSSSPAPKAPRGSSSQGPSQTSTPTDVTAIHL

CN1C(=O)CC2(Cc3cnc(Nc4ccc(N5CCNCC5)c(F)c4)nc3N(C3CCCC3)C2=O)C1=O (centres unmarked) [Example D27, 8-cyclopentyl-2-((3-fluoro-4-(piperazin-1-yl)phenyl)amino)-1′-methyl-5,8-dihydro-7H-spiro[pyrido[2,3-d]pyrimidine-6,3′-pyrrolidine]-2′,5′,7-trione]
pIC50 [1, 3]: 6.85 | pIC50 [2, 4]: 7.46

CN(C)[C@H]1CCN(C(=O)c2ccc(Nc3ncc4c(n3)N(C3CCCC3)C(=O)C3(CCNC3=O)C4)cc2)C1 (stereo partly drawn) [Example D46, 8-cyclopentyl-2-((4-((S)-3-(dimethylamino)pyrrolidine-1-carbonyl)phenyl)amino)-5,8-dihydro-7H-spiro[pyrido[2,3-d]pyrimidine-6,3′-pyrrolidine]-2′,7-dione]
pIC50 [1, 3]: 8.08 | pIC50 [2, 4]: 8.49

CC(C)N1CCN(c2ccc(Nc3ncc4c(n3)N(C3CCCC3)C(=O)C3(CCN(C)C3=O)C4)cc2)CC1 (centres unmarked) [Example D2, 8-cyclopentyl-2-((4-(4-isopropylpiperazin-1-yl)phenyl)amino)-1′-methyl-5,8-dihydro-7H-spiro[pyrido[2,3-d]pyrimidine-6,3′-pyrrolidine]-2′,7-dione]
pIC50 [1, 3]: 6.44 | pIC50 [2, 4]: 7.08

CC(C)N1CCN(c2ccc(Nc3ncc4c(n3)N(C3CCCC3)C(=O)C3(CCNC3=O)C4)c(F)c2)CC1 (centres unmarked) [Example D33, 8-cyclopentyl-2-((2-fluoro-4-(4-isopropylpiperazin-1-yl)phenyl)amino)-5,8-dihydro-7H-spiro[pyrido[2,3-d]pyrimidine-6,3′-pyrrolidine]-2′,7-dione]
pIC50 [1, 3]: 4.65 | pIC50 [2, 4]: 5.03

CC(C)N1CCN(c2ccc(Nc3ncc4c(n3)N(C3CCCC3)C(=O)C3(CCN(C)C3=O)C4)cn2)CC1 (centres unmarked) [Example D18, 8-cyclopentyl-2-((6-(4-isopropylpiperazin-1-yl)pyridin-3-yl)amino)-1′-methyl-5,8-dihydro-7H-spiro[pyrido[2,3-d]pyrimidine-6,3′-pyrrolidine]-2′,7-dione]
pIC50 [1, 3]: 6.78 | pIC50 [2, 4]: 7.28

O=C1NCCC12Cc1cnc(Nc3ccc(OCCN4CCCC4)nc3)nc1N(C1CCCC1)C2=O (centres unmarked) [Example D15, 8-cyclopentyl-2-((6-(2-(pyrrolidin-1-yl)ethoxy)pyridin-3-yl)amino)-5,8-dihydro-7H-spiro[pyrido[2,3-d]pyrimidine-6,3′-pyrrolidine]-2′,7-dione]
pIC50 [1, 3]: 7.80 | pIC50 [2, 4]: 8.15

CN1CCN(c2ccc(Nc3ncc4c(n3)N(C3CCCC3)C(=O)C3(CC(=O)N(C)C3=O)C4)cc2)CC1 (centres unmarked) [Example D21, 8-cyclopentyl-1′-methyl-2-((4-(4-methylpiperazin-1-yl)phenyl)amino)-5,8-dihydro-7H-spiro[pyrido[2,3-d]pyrimidine-6,3′-pyrrolidine]-2′,5′,7-trione]
pIC50 [1, 3]: 6.78 | pIC50 [2, 4]: 7.29

O=C1NCCC12Cc1cnc(Nc3ccc(N4CC5(CNC5)C4)cc3)nc1N(C1CCCC1)C2=O (centres unmarked) [Example D40, 2-((4-(2,6-diazaspiro[3.3]heptan-2-yl)phenyl)amino)-8-cyclopentyl-5,8-dihydro-7H-spiro[pyrido[2,3-d]pyrimidine-6,3′-pyrrolidine]-2′,7-dione]
pIC50 [1, 3]: 8.31 | pIC50 [2, 4]: 8.67

O=C1NCCC12Cc1cnc(Nc3ccc(N4CCC(N5CCOCC5)CC4)cn3)nc1N(C1CCCC1)C2=O (centres unmarked) [Example D39, 8-cyclopentyl-2-((5-(4-morpholinopiperidin-1-yl)pyridin-2-yl)amino)-5,8-dihydro-7H-spiro[pyrido[2,3-d]pyrimidine-6,3′-pyrrolidine]-2′,7-dione]
pIC50 [1, 3]: 7.88 | pIC50 [2, 4]: 8.14

CC(C)N1CCN(c2ccc(Nc3ncc4c(n3)N(C3CCCC3)C(=O)C3(CC(=O)N(C)C3=O)C4)cn2)CC1 (centres unmarked) [Example D26, 8-cyclopentyl-2-((6-(4-isopropylpiperazin-1-yl)pyridin-3-yl)amino)-1′-methyl-5,8-dihydro-7H-spiro[pyrido[2,3-d]pyrimidine-6,3′-pyrrolidine]-2′,5′,7-trione]
pIC50 [1, 3]: 6.51 | pIC50 [2, 4]: 6.98

CN(C)CCOc1ccc(Nc2ncc3c(n2)N(C2CCCC2)C(=O)C2(CC(=O)N(C)C2=O)C3)cn1 (centres unmarked) [Example D29, 8-cyclopentyl-2-((6-(2-(dimethylamino)ethoxy)pyridin-3-yl)amino)-1′-methyl-5,8-dihydro-7H-spiro[pyrido[2,3-d]pyrimidine-6,3′-pyrrolidine]-2′,5′,7-trione]
pIC50 [1, 3]: 5.98 | pIC50 [2, 4]: 6.44

O=C1NCC[C@@]12Cc1cnc(Nc3ccc(OCCN4CCCC4)nc3)nc1N(C1CCCC1)C2=O [Example D191, (S)-8-cyclopentyl-2-((6-(2-(pyrrolidin-1-yl)ethoxy)pyridin-3-yl)amino)-5,8-dihydro-7H-spiro[pyrido[2,3-d]pyrimidine-6,3′-pyrrolidine]-2′,7-dione]
pIC50 [1, 5]: 7.95 | pIC50 [2, 6]: 8.20

Cc1cc(Nc2ncc3c(n2)N(C2CCCC2)C(=O)C2(CCNC2=O)C3)ccc1N1CCN(C(C)C)CC1 (centres unmarked) [Example D36, 8-cyclopentyl-2-((4-(4-isopropylpiperazin-1-yl)-3-methylphenyl)amino)-5,8-dihydro-7H-spiro[pyrido[2,3-d]pyrimidine-6,3′-pyrrolidine]-2′,7-dione]
pIC50 [1, 3]: 8.34 | pIC50 [2, 4]: 8.71

CN1CCN(c2ccc(Nc3ncc4c(n3)N(C3CCCC3)C(=O)C3(CC(=O)N(C)C3=O)C4)cn2)CC1 (centres unmarked) [Example D25, 8-cyclopentyl-1′-methyl-2-((6-(4-methylpiperazin-1-yl)pyridin-3-yl)amino)-5,8-dihydro-7H-spiro[pyrido[2,3-d]pyrimidine-6,3′-pyrrolidine]-2′,5′,7-trione]
pIC50 [1, 3]: 6.34 | pIC50 [2, 4]: 6.87

CC(C)N1CCN(c2ccc(Nc3ncc4c(n3)N(C3CCCC3)C(=O)C3(CCNC3=O)C4)cc2F)CC1 (centres unmarked) [Example D10, 8-cyclopentyl-2-((3-fluoro-4-(4-isopropylpiperazin-1-yl)phenyl)amino)-5,8-dihydro-7H-spiro[pyrido[2,3-d]pyrimidine-6,3′-pyrrolidine]-2′,7-dione]
pIC50 ([1]; Table 3, second value of the cell CDK4/CDK6, value of the racemate, read-out: Racemate Activity CDK6): 8.46 | pIC50 [1, 3]: 8.45 | pIC50 [2, 4]: 8.82 | pIC50 ([2]; Racemate Activity CDK4, Table 3, first value of the cell CDK4/CDK6, value of the racemate): 8.82

CN(C)[C@H]1CCN(c2ccc(Nc3ncc4c(n3)N(C3CCCC3)C(=O)C3(CCNC3=O)C4)cc2F)C1 (stereo partly drawn) [Example D45, 8-cyclopentyl-2-((4-((S)-3-(dimethylamino)pyrrolidin-1-yl)-3-fluorophenyl)amino)-5,8-dihydro-7H-spiro[pyrido[2,3-d]pyrimidine-6,3′-pyrrolidine]-2′,7-dione]
pIC50 [1, 3]: 8.26 | pIC50 [2, 4]: 8.57

O=C1NCC[C@@]12Cc1cnc(Nc3ccc(OCCN4CCCCC4)nc3)nc1N(C1CCCC1)C2=O [Example D192, (S)-8-cyclopentyl-2-((6-(2-(piperidin-1-yl)ethoxy)pyridin-3-yl)amino)-5,8-dihydro-7H-spiro[pyrido[2,3-d]pyrimidine-6,3′-pyrrolidine]-2′,7-dione]
pIC50 [1, 5]: 8.07 | pIC50 [2, 6]: 8.34

CC(C)N1CCN(c2ccc(Nc3ncc4c(n3)N(C3CCCC3)C(=O)C3(CCNC3=O)C4)cn2)CC1 (centres unmarked) [Example D6, 8-cyclopentyl-2-((6-(4-isopropylpiperazin-1-yl)pyridin-3-yl)amino)-5,8-dihydro-7H-spiro[pyrido[2,3-d]pyrimidine-6,3′-pyrrolidine]-2′,7-dione]
pIC50 [1, 3]: 8.40 | pIC50 [2, 4]: 8.73
